In brackets after ≈: the same amount, converted by molar mass. Several values for one entry are separate records, joined by “and”; a condition that tells them apart may be missing. Equal values may be shown once. Read-outs that look alike come from different tables or passages of the source. Positions of bridges follow the written chain, without caps; N, C: chain ends. Non-standard residues stand in square brackets, D forms with d. Residues, ends and D or L forms follow the SMILES beside them. Chains are numbered I, II in the order given. *: point of attachment. 5FAM = O=C1OC2(c3ccc(O)cc3Oc3cc(O)ccc32)c2ccc(C(=O)*)cc21; hPhe = N[C@@H](CCc1ccccc1)C(=O)O; 2Abz = Nc1ccccc1C(=O)O; Ahx = NCCCCCC(=O)O
Columns and labels:
Assay type in all cases: cell-based
[1] = MTT cytotoxicity assay in HeLa cells; settings: human
Method: MTT assays were conducted in HeLa cells to evaluate the effect of fluorescent probe incorporation on the in vitro cytotoxic activity of the parent non-conjugated peptides. The cytotoxic effect of peptides 1, Abz-1 RhB-1, 2, and RhB-2 in HeLa cells was peptide concentration-dependent, with the highest anticancer activity observed at 200 µg/mL. Incorporation of 2-Abz and RhB at the N-terminal end reduced cytotoxic activity, while the binding of 2-Abz at the C-terminal end or FAM at the N-terminal end drastically diminished anticancer activity (Table 4).

[2] = test system: S. aureus clinical isolate 11719
P. aeruginosa ATCC 27853 = test system: P. aeruginosa ATCC 27853
Method: (§1) The minimum inhibitory concentration (MIC) of the peptides was determined by the broth microdilution technique, according to the Clinical and Laboratory Standards Institute (CLSI) guidelines, as previously described. Briefly, bacterial strains were incubated in BHI broth at 37 °C until they reached the exponential growth phase, and inocula were adjusted to 5 × 10^6 CFU/mL using calibration curves. Serial dilutions of the peptides to be evaluated in 96-well plates were made in 90 µL of Mueller Hinton broth at concentrations ranging from 200 to 6.25 µg/mL, and 10 µL of the inoculum adjusted to 5 × 10^6 CFU/mL was added. Finally, the plates were incubated at 37 °C for 24 h, and the absorbance at 620 nm was read. As a negative control, CMH, distilled water, and 10 µL of inoculum were used; for the positive control, vancomycin was used for Gram-positive strains and ciprofloxacin for Gram-negative strains at the MICs dictated by the CLSI; as a technical control, CMH with peptone water was used, and for the growth control, CMH was used with 10 µL of inoculum.
(§2) To determine the minimum bactericidal concentration (MBC), the 96-well plates where the MIC was determined were used as a starting point. From these, an aliquot of the controls and those wells where no apparent bacterial growth was observed were spotted onto trypticase soy agar plates. The plates were incubated at 37 °C for 24 h, and the reading was taken, identifying the lowest concentration of the peptide where there was no bacterial growth as the MBC.

E. coli ATCC 25922 = test system: E. coli ATCC 25922
Method: as §1, §2

[3] = test system: K. pneumoniae ATCC 700603
Method: as §1, §2

E. faecalis ATCC 29212 = test system: E. faecalis ATCC 29212
Method: as §1, §2

Hemolysis assay = assay: Hemolysis assay
Method: (§3) Whole blood was collected into EDTA tubes and centrifuged at 2500 rpm for 10 min. The plasma and buffy coat were removed, and the erythrocytes were washed three times with 0.9% saline to yield a 4% cell suspension. In 96-well plates, 100 µL of peptide dilutions (6.25–200 µg/mL) were prepared in triplicate, and 100 µL of the erythrocyte suspension was added (final hematocrit 2%). Plates were incubated at 37 °C for 2 h, and then centrifuged again at 2500 rpm for 10 min. A 100 µL aliquot of the supernatant was transferred to a fresh plate, and absorbance was measured at 450 nm. Saline and 1× Triton X-100 served as the negative and positive controls, respectively. Hemolysis (%) was calculated as follows: %hemolysis=treatment absorbance−saline absorbance/1×triton absorbance−saline absorbance

[4] = test system: E. coli clinical isolate 301755 (MDR)
Method: (§4) E. coli isolates 1004 (susceptible), 129797 (resistant), and 301755 (MDR) were selected for evaluation. Isolate 1004 was sensitive to all antibiotics tested. […] These findings identify it as a multidrug-resistant (MDR) strain and an extended-spectrum beta-lactamase (ESBL)-producing bacterium. For S. aureus, isolates 109095, 117719, and 124653 were evaluated. All three were resistant to penicillin, indicating beta-lactamase production mediated by the blaZ gene. Studies have shown that up to 90% of S. aureus isolates worldwide are penicillin-resistant, which implies that this antibiotic is ineffective in infections caused by this pathogen. […] Isolate 124653 was resistant to penicillin, tetracycline, and erythromycin, with the latter belonging to the group of macrolides, antibiotics that inhibit protein synthesis through interaction with the 50S […] subunit. For E. faecalis three isolates were selected: strains 213 (sensitive to all the antibiotics tested), strain 82 (resistant to streptomycin), and strain 179 (resistant to gentamicin). These clinical isolates were selected to assess the antimicrobial activity of the peptide RWQWRWQWR and its analogues conjugated to fluorescent molecules in strains against strains with susceptibility profiles.
(§5) The analysis of synthesized peptides in ATCC reference strains and susceptible, resistant, and multidrug-resistant (MDR) clinical isolates was performed. The clinical isolates were obtained from the National Cancer Institute collection and were previously identified and antibiogrammed using the VITEK system. Additionally, the strains were characterized by MALDI-TOF. The strains were re-primed onto trypticase soy agar and subsequently preserved in Brain–Heart Infusion (BHI) broth containing 20% glycerol. For the MIC and MBC assays, the strains were reactivated and cultured in BHI until they reached their exponential growth phase.
as §1, §2

[5] = test system: E. faecalis clinical isolate 213
Method: as §4, §5, §1, §2

[6] = test system: E. faecalis clinical isolate 82
Method: as §4, §5, §1, §2

[7] = test system: E. faecalis clinical isolate 179
Method: as §4, §5, §1, §2

[8] = test system: E. coli clinical isolate 129797 (resistant)
Method: as §4, §5, §1, §2

[9] = test system: S. aureus clinical isolate 109095
Method: as §4, §5, §1, §2

[10] = test system: S. aureus clinical isolate 124653
Method: as §4, §5, §1, §2

[11] = test system: E. coli clinical isolate 1004 (susceptible)
Method: as §4, §5, §1, §2

[12] = test system: clinical isolates of E. coli; settings: stated for all three E. coli clinical isolates
Method: as §4, §5, §1, §2

S. aureus ATCC 25923 = settings: ATCC 25923, 24 h
Method: as §1, §2

erythrocytes = assay: Hemolysis assay; settings: 2 h
Method: as §3

[13] = S. aureus clinical isolate 11719
[14] = E. coli clinical isolate 301755
[15] = E. faecalis clinical isolate 213
[16] = E. faecalis clinical isolate 82
[17] = E. faecalis clinical isolate 179
[18] = E. coli clinical isolate 129797
[19] = S. aureus clinical isolate 109095
[20] = S. aureus clinical isolate 124653
[21] = clinical isolate 301755 (MDR, 24 h)
[22] = clinical isolate 129797 (resistant, 24 h)
[23] = clinical isolate 1004 (susceptible, 24 h)

## N=C(N)NCCC[C@H](NC(=O)[C@H](Cc1c[nH]c2ccccc12)NC(=O)[C@H](CCC(N)=O)NC(=O)[C@H](Cc1c[nH]c2ccccc12)NC(=O)[C@H](CCCNC(=N)N)NC(=O)[C@H](Cc1c[nH]c2ccccc12)NC(=O)[C@H](CCC(N)=O)NC(=O)[C@H](Cc1c[nH]c2ccccc12)NC(=O)[C@@H](N)CCCNC(=N)N)C(=O)Nc1ccccc1C(N)=O [1-Abz, RWQWRWQWR-(2-Abz)] (H-RWQWRWQWR[2Abz]-NH2)
[1]; HeLa cells, MTT, read-out: Cytotoxic Activity (IC50)
  IC50: > 200 µg/mL and > 125 µM
[2]; [13]
  Minimal bactericidal concentration (MBC): 125 µM (≈ 201 µg/mL)
  Minimal inhibitory concentration (MIC): 125 µM (≈ 201 µg/mL)
P. aeruginosa ATCC 27853; P. aeruginosa ATCC 27853
  Minimal bactericidal concentration (MBC): > 125 µM
  Minimal inhibitory concentration (MIC): 125 µM (≈ 201 µg/mL)
E. coli ATCC 25922; E. coli ATCC 25922
  Minimal bactericidal concentration (MBC): 62 µM (≈ 99.6 µg/mL)
  Minimal inhibitory concentration (MIC): 62 µM (≈ 99.6 µg/mL)
[3]; K. pneumoniae ATCC 700603
  Minimal bactericidal concentration (MBC): 125 µM (≈ 201 µg/mL)
  Minimal inhibitory concentration (MIC): 125 µM (≈ 201 µg/mL)
E. faecalis ATCC 29212; E. faecalis ATCC 29212
  Minimal bactericidal concentration (MBC): > 125 µM
  Minimal inhibitory concentration (MIC): 125 µM (≈ 201 µg/mL)
Hemolysis assay; at 200 µg/mL (highest tested concentration), 2 h, 37 °C, read-out: hemolysis
  hemolysis at 2 h: 1.5%
Hemolysis assay; at the lowest MIC concentration, read-out: Percentage of hemolysis
  hemolysis at 2 h: 0.9%
[4]; [14]
  Minimal bactericidal concentration (MBC): 125 µM (≈ 201 µg/mL)
  Minimal inhibitory concentration (MIC): 62 µM (≈ 99.6 µg/mL)
[5]; [15]
  Minimal bactericidal concentration (MBC): > 125 µM
  Minimal inhibitory concentration (MIC): > 125 µM
[6]; [16]
  Minimal bactericidal concentration (MBC): > 125 µM
  Minimal inhibitory concentration (MIC): > 125 µM
[7]; [17]
  Minimal bactericidal concentration (MBC): > 125 µM
  Minimal inhibitory concentration (MIC): > 125 µM
[8]; [18]
  Minimal bactericidal concentration (MBC): 125 µM (≈ 201 µg/mL)
  Minimal inhibitory concentration (MIC): 62 µM (≈ 99.6 µg/mL)
[9]; [19]
  Minimal bactericidal concentration (MBC): 125 µM (≈ 201 µg/mL)
  Minimal inhibitory concentration (MIC): 125 µM (≈ 201 µg/mL)
[10]; [20]
  Minimal bactericidal concentration (MBC): > 125 µM
  Minimal inhibitory concentration (MIC): 125 µM (≈ 201 µg/mL)
[11]; E. coli clinical isolate 1004
  Minimal bactericidal concentration (MBC): 125 µM (≈ 201 µg/mL)
  Minimal inhibitory concentration (MIC): 62 µM (≈ 99.6 µg/mL)
[12]
  MBC: 125 µM (≈ 201 µg/mL)

## N=C(N)NCCC[C@H](NC(=O)[C@H](Cc1c[nH]c2ccccc12)NC(=O)[C@H](CCC(N)=O)NC(=O)[C@H](Cc1c[nH]c2ccccc12)NC(=O)[C@H](CCCNC(=N)N)NC(=O)[C@H](Cc1c[nH]c2ccccc12)NC(=O)[C@H](CCC(N)=O)NC(=O)[C@H](Cc1c[nH]c2ccccc12)NC(=O)[C@H](CCCNC(=N)N)NC(=O)c1ccc2c(c1)C(=O)OC21c2ccc(O)cc2Oc2cc(O)ccc21)C(N)=O [FAM-1, FAM-RWQWRWQWR] (5FAM-RWQWRWQWR-NH2)
[1]
  IC50: > 200 µg/mL and > 108 µM
[2]; clinical isolate 11719, 24 h
  Minimal bactericidal concentration (MBC): > 108 µM
  Minimal inhibitory concentration (MIC): > 108 µM
P. aeruginosa ATCC 27853; ATCC 27853, 24 h
  Minimal bactericidal concentration (MBC): > 108 µM
  Minimal inhibitory concentration (MIC): > 108 µM
S. aureus ATCC 25923
  Minimal bactericidal concentration (MBC): > 108 µM
  Minimal inhibitory concentration (MIC): 108 µM (≈ 199 µg/mL)
E. coli ATCC 25922; ATCC 25922, 24 h
  Minimal bactericidal concentration (MBC): > 108 µM
  Minimal inhibitory concentration (MIC): 108 µM (≈ 199 µg/mL)
[3]; ATCC 700603, 24 h
  Minimal bactericidal concentration (MBC): > 108 µM
  Minimal inhibitory concentration (MIC): > 108 µM
E. faecalis ATCC 29212; ATCC 29212, 24 h
  Minimal bactericidal concentration (MBC): > 108 µM
  Minimal inhibitory concentration (MIC): 54 µM (≈ 99.6 µg/mL)
Hemolysis assay; Percentage of hemolysis
  hemolysis at 2 h: 17%
erythrocytes
  Therapeutic index: 0.25
[4]; [21]
  Minimal bactericidal concentration (MBC): > 108 µM
  Minimal inhibitory concentration (MIC): 108 µM (≈ 199 µg/mL)
[5]; clinical isolate 213, 24 h
  Minimal bactericidal concentration (MBC): > 108 µM
  Minimal inhibitory concentration (MIC): 108 µM (≈ 199 µg/mL)
[6]; clinical isolate 82, 24 h
  Minimal bactericidal concentration (MBC): > 108 µM
  Minimal inhibitory concentration (MIC): 54 µM (≈ 99.6 µg/mL)
[7]; clinical isolate 179, 24 h
  Minimal bactericidal concentration (MBC): > 108 µM
  Minimal inhibitory concentration (MIC): > 108 µM
[8]; [22]
  Minimal bactericidal concentration (MBC): > 108 µM
  Minimal inhibitory concentration (MIC): > 108 µM
[9]; clinical isolate 109095, 24 h
  Minimal bactericidal concentration (MBC): > 108 µM
  Minimal inhibitory concentration (MIC): > 108 µM
[10]; clinical isolate 124653, 24 h
  Minimal bactericidal concentration (MBC): > 108 µM
  Minimal inhibitory concentration (MIC): > 108 µM
[11]; [23]
  Minimal bactericidal concentration (MBC): > 108 µM
  Minimal inhibitory concentration (MIC): 108 µM (≈ 199 µg/mL)

## CC(C)C[C@H](NC(=O)[C@H](CCCCN)NC(=O)[C@H](CCCCN)NC(=O)[C@H](CCc1ccccc1)NC(=O)[C@H](CCCNC(=N)N)NC(=O)[C@H](Cc1c[nH]c2ccccc12)NC(=O)[C@H](CCC(N)=O)NC(=O)[C@H](Cc1c[nH]c2ccccc12)NC(=O)[C@H](CCCNC(=N)N)NC(=O)[C@@H](N)CCCNC(=N)N)C(=O)NCC(=O)NCCCC[C@H](NC(=O)CNC(=O)[C@H](CC(C)C)NC(=O)[C@H](CCCCN)NC(=O)[C@H](CCCCN)NC(=O)[C@H](CCc1ccccc1)NC(=O)[C@H](CCCNC(=N)N)NC(=O)[C@H](Cc1c[nH]c2ccccc12)NC(=O)[C@H](CCC(N)=O)NC(=O)[C@H](Cc1c[nH]c2ccccc12)NC(=O)[C@H](CCCNC(=N)N)NC(=O)[C@@H](N)CCCNC(=N)N)C(=O)NCCCCCC(N)=O [peptide 2, (RRWQWR-hF-KKLG)2K-Ahx] (I: H-RRWQWR[hPhe]KKLGK[Ahx]-NH2 / II: H-RRWQWR[hPhe]KKLG; amide I:12-II:C; N-terminus assumed)
[1]
  IC50: 109 µg/mL and 32 µM
